From patent US9801832B2, “Pharmaceutical composition having synergistic action of direct catalase inhibitors and modulators of no metabolism or of extracellular superoxide anion production which lead to catalase destruction” (Universitaetsklinikum Freiburg, priority 2012, dated 2017)

Columns and labels:
[1] = tested on: MKN-45 gastric carcinoma cells; experiment: Induction of apoptosis in MKN-45 gastric carcinoma cells (percentages of apoptotic cells); type: cell-based, human; conditions: for synergistic interaction with salicylic acid in the induction of apoptosis: 6 hours (FIGS. 22-25)
Protocol: 12 500 MKN-45 cells in 100 μl (duplicate batches) were treated with the given concentrations of salicylic acid or remained free from salicylic acid. After 10 minutes the given concentrations of cyanidine were added.
12 500 MKN-45 cells in 100 μl (duplicate batches) were treated with 0.1 μg/ml salicylic acid or remained free from salicylic acid (control). […] After 6.5 hours the percentages of apoptotic cells were determined in duplicate batches.
12 500 MKN-45 cells in 100 μl (duplicate batches) either received no additive (control), 2 mM of the singlet oxygen scavenger histidine or 25 μM Caspase-8 inhibitor. […] After another 15 minutes cyanidine was added in the given concentrations. After 6.5 hours of incubation at 37° C. the percentages of apoptotic cells were determined.
12 500 MKN-45 cells in 100 μl (duplicate batches) either received no additive (control), 2 mM of the singlet oxygen scavenger histidine or 25 μM Caspase-8 inhibitor. […] After 6.5 hours incubation at 37° C. the percentage of apoptotic cells was determined. […]
12 500 MKN-45 cells in 100 μl medium were incubated with increasing concentrations of the given active ingredients, in the presence or absence of 0.1 μg/ml salicylic acid for 6 hours and then, the percentages of the apoptotic cells were determined (repeated determination).

tumor cell catalase = biological target: T1, tumor cell catalase (Homo sapiens, UniProt P04040); experiment: Catalase inhibition/inactivation in MKN-45 cells by challenge with exogenous peroxynitrite, NO donor or glucose oxidase; type: cell-based; parameters: endogenous in cells; host or cells: MKN-45 gastric carcinoma cells; conditions: 200 μM peroxynitrite
T1 sequence (P04040 2-527 limits assumed): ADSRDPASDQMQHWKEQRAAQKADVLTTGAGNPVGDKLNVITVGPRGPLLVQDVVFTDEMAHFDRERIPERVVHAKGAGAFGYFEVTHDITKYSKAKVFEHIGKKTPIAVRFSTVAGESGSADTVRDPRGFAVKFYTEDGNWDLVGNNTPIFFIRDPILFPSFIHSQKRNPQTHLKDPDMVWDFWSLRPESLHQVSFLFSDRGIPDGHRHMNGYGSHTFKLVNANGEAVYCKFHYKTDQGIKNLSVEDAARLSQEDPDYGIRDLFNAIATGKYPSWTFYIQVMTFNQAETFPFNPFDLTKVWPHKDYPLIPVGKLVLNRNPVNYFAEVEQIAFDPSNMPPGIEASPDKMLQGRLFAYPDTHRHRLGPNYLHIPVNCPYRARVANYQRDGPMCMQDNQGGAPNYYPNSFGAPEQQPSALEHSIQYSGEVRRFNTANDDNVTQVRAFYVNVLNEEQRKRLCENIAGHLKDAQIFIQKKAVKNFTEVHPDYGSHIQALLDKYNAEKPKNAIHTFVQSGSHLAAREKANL
Protocol: Direct catalase inhibition with relevance to the induction of apoptosis in tumor cells can be determined by pre-incubating tumor cells at first in the presence of the singlet oxygen scavenger histidine (2 mM) with the substance to be tested in increasing concentration (between 10 and 30 minutes at 37° C.) and subsequently adding peroxynitrite in the concentration range between 10 and 200 μM. The tumor cells are protected from the apoptosis-triggering effect of peroxynitrite by their membranous catalase. An inhibition of the catalase partially or completely cancels this protection and in the presence of peroxynitrite leads to the induction of apoptosis. The presence of 2 mM histidine ensures that the measured induction of apoptosis is not a singlet oxygen-mediated inactivation of the catalase by destruction of its active center. Alternatively, instead of addition of histidine inhibition of the NADPH oxidase by 100 μM AEBSF may take place. With prevented superoxide anion production also no singlet oxygen formation in the test system is possible.
4000 MKN-45 cells per 100 μl in […] were treated with increasing concentrations of monoclonal antibodies against catalase “Anti-KAT” or Anti-EGFR. After 15 minutes either 200 μM peroxynitrite (“PON”), 0.5 mM DEA-NONOate (rapidly decomposing NO donor), or 2 mU/ml glucose oxidase (GOX) that continuously generates hydrogen peroxide were added. After another two hours at 37° C. the percentages of apoptotic cells were determined in duplicate batches.
The principle of identification is based on the fact that tumor cells (here MKN-45 gastric carcinoma cells) are protected from the apoptosis-triggering effect of exogenously added peroxynitrite by their membranous catalase. Addition of catalase inhibitors sensitizes the cells to the effect of exogenous peroxynitrite.
The experiment was performed in analogy to that described in FIG. 9 except that instead of Anti-KAT a monoclonal antibody against SOD was used. The cells were tested in two different densities, namely 4000 and 12 500 cells per 100 μl. The challenge to test the activity of catalase was carried out with 200 μM peroxynitrite, or 0.5 mM DEA NONOate or 2 mU/ml GOX.
Subsequently, 200 μM or no peroxynitrite was added. After 1.5 hours the percentages of apoptotic cells were determined in duplicate batches.
Subsequently, 200 μM or no peroxynitrite was added. After 1 hour the percentages of apoptotic cells were determined in duplicate batches.
12 500 MKN-45 cells in 100 μl medium received 100 μM AEBSF or no additive. After 15 minutes the given concentrations of cyanidine were added and the batches were incubated for 15 minutes at 37° C. Subsequently, 200 μM peroxynitrite (PON) were added or the batches were not treated with peroxynitrite (control). After 1 hour the percentages of apoptotic cells were determined in duplicate batches.
12 500 MKN-45 cells received no addition (control), or 2 mM histidine, or 100 μM AEBSF or 2.4 mM L-NAME immediately before the addition of the given concentrations of salicylic acid (“0 min”) or 20 minutes after addition of salicyl. 20 minutes after the addition of salicylic acid 200 μM peroxynitrite (PON) were added to all batches except the control batches. After another 2 hours the percentages of apoptotic cells were determined in duplicates.

[2] = 0.1 μg/ml salicylic acid, MKN-45

Question: Which “synergistic interaction with salicylic acid in the induction of apoptosis” value (shortened to “synergistic interaction”) [1, 2] does the source give for `COc1cc(O)c(CC=C(C)C)c(O)c1C(=O)/C=C/c1ccc(O)cc1` [xanthohumol] here?
Answer: synergistically reacts

Question: For `N=C(N)NCCC[C@H](N)C(=O)O` [arginine], which “synergistic interaction” value [1, 2] is on record?
Answer: synergistically reacts

Question: Which “induction of apoptosis, substance alone at the concentration of the combination” value ([1]; 0.15 ng/ml cyanidine alone, 0.08 μg/ml salicylic acid alone, MKN-45 (FIG. 16)) does the source give for `Oc1cc(O)c2cc(O)c(-c3ccc(O)c(O)c3)[o+]c2c1.[Cl-]` [cyanidine, cyanidine chloride] here?
Answer: remained ineffective

Question: And the “induction of apoptosis by the combination with salicylic acid” value ([1]; 0.15 ng/ml cyanidine with 0.08 μg/ml salicylic acid, MKN-45 (FIG. 16))?
Answer: maximum induction of apoptosis

Question: And the “dependence of the synergistic effect with salicylic acid on Caspase-8” value ([1]; 0.1 μg/ml salicylic acid, 25 μM Caspase-8 inhibitor, MKN-45, 6.5 hours (FIGS. 18, 19))?
Answer: independent of Caspase-8

Question: What about the “dependence of the synergistic effect with salicylic acid on singlet oxygen” value ([1]; 0.1 μg/ml salicylic acid, 2 mM histidine, MKN-45, 6.5 hours (FIGS. 18, 19)) of the same molecule?
Answer: also based on the effect of singlet oxygen

Question: What about the “synergistic effect with salicylic acid in the induction of apoptosis” value ([1]; 0.1 μg/ml salicylic acid, MKN-45, 6.5 hours (FIG. 17)) of the same molecule?
Answer: remarkable synergistic effect

Question: What about the EC50 ([1]; Homo sapiens, applied alone, MKN-45, 6 hours (FIG. 16), read-out: concentration at half-maximum value of induction of apoptosis) of the same molecule?
Answer: ~0.02 µg/mL

Question: What about the “concentration at optimum of induction of apoptosis” value ([1]; applied alone, MKN-45, 6 hours (FIG. 16)) of the same molecule?
Answer: 0.3 µg/mL

Question: What about the “synergistic effect with salicylic acid in the induction of apoptosis” value ([1]; given concentrations of salicylic acid, MKN-45, 6 hours (FIG. 16)) of the same molecule?
Answer: considerable synergistic effect

Question: What about the “dependence of the induction of apoptosis on Caspase-8” value ([1]; substance alone, 25 μM Caspase-8 inhibitor, MKN-45) of the same molecule?
Answer: depends on the activity of dead receptors (such as FAS) and the thus activated Caspase-8

Question: And the “dependence of the induction of apoptosis on singlet oxygen” value ([1]; substance alone, 2 mM histidine (singlet oxygen scavenger), MKN-45)?
Answer: depends on singlet oxygen

Question: And the induction of apoptosis ([1]; substance alone, 12 500 MKN-45 cells in 100 μl, 4-6.5 hours at 37° C.)?
Answer: concentration-dependent induction of apoptosis

Question: And the “catalase inhibition / sensitization to peroxynitrite with inhibited superoxide anion synthesis” value (tumor cell catalase; 100 μM AEBSF, MKN-45)?
Answer: do not exhibit sensitivity for peroxynitrite

Question: And the “inhibition of tumor cell catalase (sensitization to exogenous peroxynitrite)” value (tumor cell catalase; MKN-45)?
Answer: leads to a sensitization to peroxynitrite

Question: What about the “requirement of singlet oxygen, superoxide anions and NO for catalase inhibition/inactivation” value (tumor cell catalase; 2 mM histidine, 100 μM AEBSF or 2.4 mM L-NAME, MKN-45 (FIGS. 14, 15)) of the same molecule?
Answer: requires singlet oxygen, superoxide anions and NO

Question: `C=CCN=C=S` [allylisothiocyanate] was tested. Which “synergistic interaction” value [1, 2] did it give?
Answer: synergistically reacts

Question: With `N=C(NO)NCC[C@H](N)C(=O)O` [NOR-NOHA] as the molecule, how does the “synergistic interaction” value [1, 2] read?
Answer: synergistically reacts

Question: With `O=c1c(O)c(-c2ccc(O)c(O)c2)oc2cc(O)cc(O)c12` [quercetin] as the molecule, how does the “synergistic interaction” value [1, 2] read?
Answer: synergistically reacts

Question: What does the source list for `O=C1O[C@H]([C@@H](O)CO)C(O)=C1O` [ascorbic acid]?
Answer: synergism with cyanidine in the induction of apoptosis [1]: Synergism is achieved; synergism with taxol in the induction of apoptosis [1]: Synergism is achieved; inhibition of tumor cell catalase (sensitization to exogenous peroxynitrite) (tumor cell catalase; MKN-45): directly inhibit catalase

Question: How did the “synergistic interaction” value [1, 2] turn out when `C=CCSCC=C` [diallylsulfide] was run?
Answer: not

Question: For `C=CCSSCC=C` [diallyldisulfide], which “synergistic interaction” value [1, 2] is on record?
Answer: synergistically reacts

Question: With `CCCCCCCCCCCCCCCC(=O)O` [palmitic acid] as the molecule, how does the “synergistic interaction” value [1, 2] read?
Answer: synergistically reacts

Question: `COc1cc(O)c(CC=C(C)C)c2c1C(=O)CC(c1ccc(O)cc1)O2` (stereo not drawn) [isoxanthohumol] was tested. Which “synergistic interaction” value [1, 2] did it give?
Answer: synergistically reacts

Question: With `C[C@@H]1CC[C@H]2[C@@H](C)C(=O)O[C@@H]3O[C@@]4(C)CC[C@@H]1[C@]32OO4` [artemisinin] as the molecule, how does the “synergistic interaction” value [1, 2] read?
Answer: synergistically reacts
